PubChem BioAssay AID192 (DTP/NCI, 2004)
“And” between values parts separate entries of the source, which are not always exact repeats. Identical values can stand only once. Inconclusive results and toxic doses are left out.

Test system: BDF1 mice, B16 melanoma ip, median survival T/C
Experiment: NCI In Vivo Anticancer Drug Screen. Data for tumor model B16 Melanoma (intraperitoneal) in B6D2F1 (BDF1) mice
Conditions: endpoint: median survival time, higher = longer survival
How it was run: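 The ratio T/C compares compound-treated mice with vehicle-treated controls, using survival or tumor size as the endpoint in a transplantable tumor model.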

[1] = dose: 12.5 mg/kg/injection, schedule: Q01DX009 (ip), vehicle: Klucel (hydroxypropylcellulose) (HPC)
[2] = dose: 25.0 mg/kg/injection, schedule: Q01DX009 (ip), vehicle: Klucel (hydroxypropylcellulose) (HPC)
[3] = dose: 50.0 mg/kg/injection, schedule: Q01DX009 (ip), vehicle: Klucel (hydroxypropylcellulose) (HPC)
[4] = dose: 100.0 mg/kg/injection, schedule: Q01DX009 (ip), vehicle: Klucel (hydroxypropylcellulose) (HPC)
[5] = dose: 25.0 mg/kg/injection, schedule: Q01DX009 (ip), vehicle: saline with Tween-80
[6] = dose: 50.0 mg/kg/injection, schedule: Q01DX009 (ip), vehicle: saline with Tween-80
[7] = dose: 100.0 mg/kg/injection, schedule: Q01DX009 (ip), vehicle: saline with Tween-80
[8] = dose: 100.0 mg/kg/injection, schedule: Q04DX003 (ip), vehicle: saline with Tween-80
[9] = dose: 200.0 mg/kg/injection, schedule: Q04DX003 (ip), vehicle: saline with Tween-80
[10] = dose: 400.0 mg/kg/injection, schedule: Q04DX003 (ip), vehicle: saline with Tween-80
[11] = dose: 12.5 mg/kg/injection, schedule: Q01DX009 (ip), vehicle: saline with Tween-80
[12] = dose: 25.0 mg/kg/injection, schedule: Q01DX009 (ip), vehicle: carboxymethylcellulose (CMC)
[13] = dose: 50.0 mg/kg/injection, schedule: Q01DX009 (ip), vehicle: carboxymethylcellulose (CMC)
[14] = dose: 100.0 mg/kg/injection, schedule: Q01DX009 (ip), vehicle: carboxymethylcellulose (CMC)
[15] = dose: 50.0 mg/kg/injection, schedule: Q01DX009 (ip), vehicle: saline
[16] = dose: 200.0 mg/kg/injection, schedule: Q01DX009 (ip), vehicle: saline with Tween-80

Q: With Cc1cc(=O)n(C)c2ccccc12 as the molecule, how does the T/C [1] read?
A: 90 % of control

Q: What about the T/C [2] of the same molecule?
A: 90 % of control

Q: And the T/C [3]?
A: 90 % of control

Q: And the T/C (dose: 50.0 mg/kg/injection, schedule: Q04DX003 (ip), vehicle: Klucel (hydroxypropylcellulose) (HPC))?
A: 107 % of control

Q: What about the T/C [4] of the same molecule?
A: 90 % of control

Q: What about the T/C (dose: 100.0 mg/kg/injection, schedule: Q04DX003 (ip), vehicle: Klucel (hydroxypropylcellulose) (HPC)) of the same molecule?
A: 102 % of control

Q: And the T/C (dose: 200.0 mg/kg/injection, schedule: Q04DX003 (ip), vehicle: Klucel (hydroxypropylcellulose) (HPC))?
A: 102 % of control

Q: Which results are given for CCC(=O)O[C@H]1CC[C@H]2[C@@H]3[C@@H](C)CC4=CC(=O)CC[C@]4(C)[C@H]3CC[C@]12C?
A: T/C [5]: 98 % of control; T/C [6]: 91 % of control; T/C [7]: 87 % of control and 89 % of control; T/C [8]: 100 % of control; T/C [9]: 100 % of control; T/C [10]: 86 % of control

Q: CN=S(=O)(OCCCCCOS(=O)(=NC)c1ccccc1)c1ccccc1 (stereo not given) was tested. Which T/C (dose: 1.5 mg/kg/injection, schedule: Q01DX009 (ip), vehicle: saline with Tween-80) did it give?
A: 111 % of control

Q: And the T/C (dose: 3.0 mg/kg/injection, schedule: Q01DX009 (ip), vehicle: saline with Tween-80)?
A: 104 % of control

Q: What about the T/C (dose: 6.0 mg/kg/injection, schedule: Q01DX009 (ip), vehicle: saline with Tween-80) of the same molecule?
A: 122 % of control

Q: And the T/C [11]?
A: 94 % of control

Q: What about the T/C (dose: 24.0 mg/kg/injection, schedule: Q01DX009 (ip), vehicle: saline with Tween-80) of the same molecule?
A: 169 % of control

Q: What about the T/C [5] of the same molecule?
A: 122 % of control

Q: CC(C(=O)O)C(=O)O.[NH-]CC[NH-].[Pt+2] was tested. Which T/C (dose: 3.12 mg/kg/injection, schedule: Q01DX009 (ip), vehicle: water) did it give?
A: 150 % of control

Q: What about the T/C (dose: 6.25 mg/kg/injection, schedule: Q01DX009 (ip), vehicle: water) of the same molecule?
A: 162 % of control

Q: And the T/C (dose: 12.5 mg/kg/injection, schedule: Q01DX009 (ip), vehicle: water)?
A: 179 % of control

Q: What about the T/C (dose: 25.0 mg/kg/injection, schedule: Q01DX009 (ip), vehicle: water) of the same molecule?
A: 211 % of control

Q: With CC(=O)NC(CCC(=O)C=[N+]=N)C(=O)O (stereo not given) as the molecule, how does the T/C (dose: 0.01 mg/kg/injection, schedule: Q01DX009 (ip), vehicle: water) read?
A: 113 % of control

Q: What about the T/C (dose: 0.05 mg/kg/injection, schedule: Q01DX009 (ip), vehicle: water) of the same molecule?
A: 102 % of control

Q: What about the T/C (dose: 0.1 mg/kg/injection, schedule: Q01DX009 (ip), vehicle: other) of the same molecule?
A: 106 % of control

Q: And the T/C (dose: 0.1 mg/kg/injection, schedule: Q01DX009 (ip), vehicle: water)?
A: 86 % of control

Q: What about the T/C (dose: 0.2 mg/kg/injection, schedule: Q01DX009 (ip), vehicle: other) of the same molecule?
A: 90 % of control

Q: And the T/C (dose: 10.0 mg/kg/injection, schedule: Q04DX003 (ip), vehicle: other)?
A: 109 % of control

Q: What about the T/C (dose: 15.0 mg/kg/injection, schedule: Q04DX003 (ip), vehicle: water) of the same molecule?
A: 123 % of control

Q: What about the T/C (dose: 20.0 mg/kg/injection, schedule: Q04DX003 (ip), vehicle: other) of the same molecule?
A: 100 % of control

Q: What about the T/C (dose: 30.0 mg/kg/injection, schedule: Q04DX003 (ip), vehicle: water) of the same molecule?
A: 121 % of control

Q: And the T/C (dose: 40.0 mg/kg/injection, schedule: Q04DX003 (ip), vehicle: other)?
A: 106 % of control

Q: And the T/C (dose: 60.0 mg/kg/injection, schedule: Q04DX003 (ip), vehicle: water)?
A: 118 % of control

Q: For O=C1c2ccccc2C(=O)c2c(NCCN3CCNCC3)ccc(NCCN3CCNCC3)c21, which T/C (dose: 8.0 mg/kg/injection, schedule: Q01DX009 (ip), vehicle: acid diluted with saline) is on record?
A: 106 % of control

Q: What about the T/C (dose: 16.0 mg/kg/injection, schedule: Q01DX009 (ip), vehicle: acid diluted with saline) of the same molecule?
A: 104 % of control

Q: What about the T/C (dose: 32.0 mg/kg/injection, schedule: Q01DX009 (ip), vehicle: acid diluted with saline) of the same molecule?
A: 104 % of control

Q: And the T/C (dose: 64.0 mg/kg/injection, schedule: Q01DX009 (ip), vehicle: acid diluted with saline)?
A: 96 % of control

Q: Which results are given for COC1=C(C)C2CC(=O)OC3CC4C(C)CC(O)C(=O)C4(C)C(C1=O)C32C (stereo not given)?
A: T/C (dose: 0.5 mg/kg/injection, schedule: Q01DX009 (ip), vehicle: saline + alcohol): 110 % of control; T/C (dose: 1.0 mg/kg/injection, schedule: Q01DX009 (ip), vehicle: saline + alcohol): 107 % of control; T/C (dose: 2.0 mg/kg/injection, schedule: Q01DX009 (ip), vehicle: saline + alcohol): 99 % of control; T/C (dose: 4.0 mg/kg/injection, schedule: Q01DX009 (ip), vehicle: saline + alcohol): 87 % of control; T/C (dose: 8.0 mg/kg/injection, schedule: Q01DX009 (ip), vehicle: saline + alcohol): 99 % of control

Q: CCCCCCCCCCCCCCCCc1ccc(CCCC(=O)O)cc1 was tested. Which T/C [12] did it give?
A: 101 % of control

Q: And the T/C [13]?
A: 103 % of control

Q: What about the T/C [14] of the same molecule?
A: 95 % of control

Q: Which results are given for COCCOC1=C(N2CC2)C(=O)C(OCCOC)=C(N2CC2)C1=O?
A: T/C (dose: 0.5 mg/kg/injection, schedule: Q01DX009 (ip), vehicle: saline): 102 % of control and 123 % of control; T/C (dose: 1.0 mg/kg/injection, schedule: Q01DX009 (ip), vehicle: saline): 110 % of control; T/C (dose: 2.0 mg/kg/injection, schedule: Q01DX009 (ip), vehicle: saline): 94 % of control; T/C (dose: 4.0 mg/kg/injection, schedule: Q01DX009 (ip), vehicle: saline): 150 % of control

Q: COc1cc(CN(C)C2CCCCC2)cc(OC)c1OC was tested. Which T/C (dose: 3.12 mg/kg/injection, schedule: Q01DX009 (ip), vehicle: saline) did it give?
A: 105 % of control

Q: And the T/C (dose: 6.25 mg/kg/injection, schedule: Q01DX009 (ip), vehicle: saline)?
A: 102 % of control

Q: What about the T/C (dose: 12.5 mg/kg/injection, schedule: Q01DX009 (ip), vehicle: saline) of the same molecule?
A: 95 % of control

Q: And the T/C (dose: 25.0 mg/kg/injection, schedule: Q01DX009 (ip), vehicle: saline)?
A: 91 % of control

Q: What about the T/C [15] of the same molecule?
A: 101 % of control

Q: With O=CNC(Cc1ccccc1)C(=O)O (stereo not given) as the molecule, how does the T/C [6] read?
A: 106 % of control

Q: What about the T/C [7] of the same molecule?
A: 92 % of control

Q: And the T/C [16]?
A: 89 % of control

Q: Which results are given for OC(CCN1CCCCC1)(c1ccccc1)C1CCCC1 (stereo not given)?
A: T/C [1]: 100 % of control; T/C [2]: 94 % of control; T/C [3]: 100 % of control

Q: Which T/C [6] does the source give for CC(C)CC(NC(=O)C(CC(C)C)NC(=O)OCc1ccccc1)C(=O)O (stereo not given) here?
A: 97 % of control

Q: What about the T/C [7] of the same molecule?
A: 101 % of control

Q: And the T/C [16]?
A: 92 % of control

Q: With O=C([CH-]C(=O)C(F)(F)F)c1ccccc1.O=C([CH-]C(=O)C(F)(F)F)c1ccccc1.O=C([CH-]C(=O)C(F)(F)F)c1ccccc1.O=C([CH-]C(=O)C(F)(F)F)c1ccccc1.[Eu+3].c1ccncc1 as the molecule, how does the T/C [1] read?
A: 92 % of control and 96 % of control

Q: What about the T/C [2] of the same molecule?
A: 88 % of control and 97 % of control

Q: And the T/C [3]?
A: 92 % of control and 101 % of control

Q: What about the T/C [4] of the same molecule?
A: 93 % of control and 98 % of control

Q: And the T/C (dose: 200.0 mg/kg/injection, schedule: Q01DX009 (ip), vehicle: Klucel (hydroxypropylcellulose) (HPC))?
A: 102 % of control and 107 % of control

Q: What about the T/C (dose: 400.0 mg/kg/injection, schedule: Q01DX009 (ip), vehicle: Klucel (hydroxypropylcellulose) (HPC)) of the same molecule?
A: 93 % of control and 98 % of control

Q: What does the source list for CC(=O)/C(N=O)=C(/C)O?
A: T/C [15]: 110 % of control; T/C (dose: 100.0 mg/kg/injection, schedule: Q01DX009 (ip), vehicle: saline): 105 % of control; T/C (dose: 200.0 mg/kg/injection, schedule: Q01DX009 (ip), vehicle: saline): 97 % of control

Q: Which results are given for COC(=O)C1C(O)C(C)C(O)C(C)/C=C\C=C(C)C(=O)Nc2c(C)c(OC(C)=O)c3c(c2O)C(=O)C(C)=C2OCOC(=C23)C(C)=CC(C)(O)C(O)C(C)C1O (stereo not given)?
A: T/C [1]: 112 % of control; T/C [2]: 100 % of control; T/C [12]: 107 % of control; T/C [3]: 102 % of control; T/C [13]: 103 % of control; T/C [14]: 102 % of control; T/C (dose: 200.0 mg/kg/injection, schedule: Q01DX009 (ip), vehicle: carboxymethylcellulose (CMC)): 96 % of control

Q: What does the source list for CCCCCCCCCCCCNCCC#N?
A: T/C (dose: 6.25 mg/kg/injection, schedule: Q01DX009 (ip), vehicle: saline with Tween-80): 100 % of control; T/C [11]: 92 % of control; T/C [5]: 91 % of control and 100 % of control; T/C [6]: 89 % of control

Q: With CCc1occ(C(=O)OC)c1C(=O)OC as the molecule, how does the T/C [8] read?
A: 102 % of control

Q: What about the T/C [9] of the same molecule?
A: 97 % of control

Q: And the T/C [10]?
A: 95 % of control

Q: Which T/C (dose: 75.0 mg/kg/injection, schedule: Q04DX003 (ip), vehicle: Klucel (hydroxypropylcellulose) (HPC)) does the source give for O=c1[nH]c(/C=C/c2ccc(Cl)cc2)nc(O)c1-c1ccc(Cl)cc1 here?
A: 110 % of control

Q: What about the T/C (dose: 150.0 mg/kg/injection, schedule: Q04DX003 (ip), vehicle: Klucel (hydroxypropylcellulose) (HPC)) of the same molecule?
A: 100 % of control

Q: What about the T/C (dose: 300.0 mg/kg/injection, schedule: Q04DX003 (ip), vehicle: Klucel (hydroxypropylcellulose) (HPC)) of the same molecule?
A: 87 % of control
